Read-outs that look alike come from different tables or passages of the source.

Common to all, as to type: cell-based
In test [1] the target is T1, human GLP-1 receptor (GLP-1R) (Homo sapiens, UniProt P43220).
T1 construct: expressed in transfected cells
Put plainly: cAMP assay, human GLP-1R cells. The method, boiled down:
(§1)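 Peptide-stimulated cAMP measured by two-step HTRF after a 30 min room-temperature incubation with receptor-expressing cells (hGLP-1R, hGIPR at 1×10^5 cells/ml; hGCGR at 2×10^5 cells/ml). Duplicate dilutions; EC50 from 4-parameter logistic fit of % Delta F.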
Background: cAMP levels reflect the balance of adenylyl cyclase and phosphodiesterase activity.

For test [2], the target named is T2, human glucagon receptor (GCGR) (Homo sapiens, UniProt P47871).
T2 construct: expressed in transfected cells
T2 sequence (P47871 26-477): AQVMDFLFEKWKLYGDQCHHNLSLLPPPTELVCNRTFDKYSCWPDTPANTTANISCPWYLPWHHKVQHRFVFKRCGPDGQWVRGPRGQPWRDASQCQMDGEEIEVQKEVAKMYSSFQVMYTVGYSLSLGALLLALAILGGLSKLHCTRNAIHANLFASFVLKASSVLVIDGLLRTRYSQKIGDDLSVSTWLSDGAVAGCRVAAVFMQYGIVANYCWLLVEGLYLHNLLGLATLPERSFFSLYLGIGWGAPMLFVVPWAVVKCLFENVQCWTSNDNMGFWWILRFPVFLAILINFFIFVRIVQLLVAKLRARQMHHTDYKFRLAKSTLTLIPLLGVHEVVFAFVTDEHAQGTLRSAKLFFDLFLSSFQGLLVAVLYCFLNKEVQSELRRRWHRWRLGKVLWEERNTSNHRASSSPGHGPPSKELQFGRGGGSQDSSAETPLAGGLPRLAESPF
Put plainly: cAMP assay, human GCGR cells. Particulars: cAMP assay. An outline of the steps: as §1

Test [3] concerns the target T3, human glucose-dependent insulinotropic peptide receptor (GIPR) (Homo sapiens, UniProt P48546).
T3 construct: expressed in transfected cells
T3 sequence (P48546 22-466): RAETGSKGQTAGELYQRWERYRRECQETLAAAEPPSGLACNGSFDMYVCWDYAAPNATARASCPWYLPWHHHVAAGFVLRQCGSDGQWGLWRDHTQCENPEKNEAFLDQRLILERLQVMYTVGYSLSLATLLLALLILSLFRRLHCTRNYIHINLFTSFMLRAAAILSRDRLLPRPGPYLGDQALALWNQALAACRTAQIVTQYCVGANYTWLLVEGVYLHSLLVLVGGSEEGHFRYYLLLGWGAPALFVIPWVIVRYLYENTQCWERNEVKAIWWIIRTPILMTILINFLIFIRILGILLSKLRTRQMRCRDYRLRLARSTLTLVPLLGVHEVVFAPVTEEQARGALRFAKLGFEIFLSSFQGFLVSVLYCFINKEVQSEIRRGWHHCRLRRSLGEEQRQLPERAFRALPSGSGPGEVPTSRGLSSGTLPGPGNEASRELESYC
Briefly: cAMP assay, human GIPR cells. Particulars: cAMP assay. An outline of the steps: as §1

Where [4] appears, read: cAMP assay, first determination (n1), read-out: Primary assay EC50 GLP-1R n1.
[5] abbreviates: cAMP assay, second determination (n2), read-out: Primary assay EC50 GLP-1R n2.
Setting [6] is: mean of n1 and n2, read-out: Mean pM GLP-1R.
The mark [7] stands for this setting: Primary assay EC50 Gluc-R (n1), first determination (n1).
The mark [8] stands for this setting: read-out: Primary assay EC50 Gluc-R (n2), second determination (n2).
Setting [9] is: Primary assay EC50 GIP-R (n1), first determination (n1).
Setting [10] is: read-out: Primary assay EC50 GIP-R (n2), second determination (n2).
Setting [11] is: first determination (n1), read-out: Primary assay EC50 Gluc-R (n1).
Where [12] appears, read: second determination (n2), read-out: Primary assay EC50 Gluc-R (n2).
The mark [13] stands for this setting: first determination (n1), read-out: Primary assay EC50 GIP-R (n1).
[14] abbreviates: second determination (n2), read-out: Primary assay EC50 GIP-R (n2).

T1 sequence (P43220 24-463): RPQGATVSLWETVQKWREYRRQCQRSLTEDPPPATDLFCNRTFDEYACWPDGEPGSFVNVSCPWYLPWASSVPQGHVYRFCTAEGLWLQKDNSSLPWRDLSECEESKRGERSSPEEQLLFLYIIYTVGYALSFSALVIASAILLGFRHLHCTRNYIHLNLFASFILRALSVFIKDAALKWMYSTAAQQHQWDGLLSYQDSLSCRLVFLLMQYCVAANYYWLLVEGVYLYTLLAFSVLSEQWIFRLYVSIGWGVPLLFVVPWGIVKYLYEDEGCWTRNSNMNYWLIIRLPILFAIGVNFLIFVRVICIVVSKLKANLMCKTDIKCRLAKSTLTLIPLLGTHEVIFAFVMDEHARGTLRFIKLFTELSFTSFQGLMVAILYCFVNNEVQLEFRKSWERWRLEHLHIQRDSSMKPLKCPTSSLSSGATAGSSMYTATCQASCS

Consider `CC[C@H](C)[C@H](NC(=O)[C@](C)(Cc1ccccc1)NC(=O)[C@H](CCC(=O)O)NC(=O)[C@H](CCCCNC(=O)CCCCCNC(=O)CCCCCNC(=O)CCCCCNC(=O)CCCCCCCCCCCOc1ccc(C(=O)O)cc1)NC(=O)[C@H](C)NC(=O)[C@H](C)NC(=O)[C@H](CCC(=O)O)NC(=O)CNC(=O)[C@H](CCC(=O)O)NC(=O)[C@H](CC(C)C)NC(=O)[C@](C)(Cc1ccccc1)NC(=O)[C@H](CO)NC(=O)[C@](C)(CO)NC(=O)[C@@H](NC(=O)[C@H](CC(=O)O)NC(=O)[C@H](CO)NC(=O)[C@@H](NC(=O)[C@](C)(Cc1ccccc1)NC(=O)[C@H](CO)NC(=O)CNC(=O)[C@H](CCC(=O)O)NC(=O)C(C)(C)NC(=O)[C@@H](N)Cc1c[nH]cn1)[C@@H](C)O)C(C)C)C(=O)N[C@@H](C)C(=O)N[C@@](C)(Cc1ccccc1)C(=O)N[C@H](C(=O)N[C@H](C(=O)N[C@@](C)(CCCCN)C(=O)NCC(=O)NCC(N)=O)C(C)C)C(C)C` [compound 142], for which the EC50 in test [1] (setting [4]) is 12 pM; in test [1] (setting [5]), 7.9 pM; in test [1] (setting [6]) it was 10.1 pM; in test [2] (setting [7]), not below 26 nM; in test [2] (setting [8]), not below 26 nM; in test [3] (setting [9]) it was not below 26 nM. In addition, the EC50 in test [3] (setting [10]) was not below 26 nM.

With `CC[C@H](C)[C@H](NC(=O)[C@](C)(Cc1ccccc1)NC(=O)[C@H](CCC(=O)O)NC(=O)[C@H](CCCCNC(=O)COCCOCCNC(=O)COCCOCCNC(=O)CCCCCCCCCCCOc1ccc(C(=O)O)cc1)NC(=O)[C@H](C)NC(=O)[C@H](C)NC(=O)[C@H](CCC(=O)O)NC(=O)CNC(=O)[C@H](CCC(=O)O)NC(=O)[C@H](CC(C)C)NC(=O)[C@](C)(Cc1ccccc1)NC(=O)[C@H](CO)NC(=O)[C@](C)(CO)NC(=O)[C@@H](NC(=O)[C@H](CC(=O)O)NC(=O)[C@H](CO)NC(=O)[C@@H](NC(=O)[C@](C)(Cc1ccccc1)NC(=O)[C@H](CO)NC(=O)CNC(=O)[C@H](CCC(=O)O)NC(=O)C(C)(C)NC(=O)[C@@H](N)Cc1c[nH]cn1)[C@@H](C)O)C(C)C)C(=O)N[C@@H](C)C(=O)N[C@@](C)(Cc1ccccc1)C(=O)N[C@H](C(=O)N[C@H](C(=O)N[C@@](C)(CCCCN)C(=O)NCC(=O)NCC(N)=O)C(C)C)C(C)C` [compound 144], the EC50 is 16 pM in test [1] (setting [4]); 9.6 pM in test [1] (setting [5]); 12.6 pM in test [1] (setting [6]); not below 26 nM in test [2] (setting [7]); not below 26 nM in test [2] (setting [8]); not below 26 nM in test [3] (setting [9]). In test [3] (setting [10]), the EC50 was not below 26 nM.

Take `CC[C@H](C)[C@H](NC(=O)[C@](C)(Cc1ccccc1)NC(=O)[C@H](CCC(=O)O)NC(=O)[C@H](CCCCNC(=O)COCCOCCNC(=O)COCCOCCNC(=O)COCCOCCNC(=O)CCCCCCCCCCCOc1ccc(C(=O)O)cc1)NC(=O)[C@H](C)NC(=O)[C@H](C)NC(=O)[C@H](CCC(=O)O)NC(=O)CNC(=O)[C@H](CCC(=O)O)NC(=O)[C@H](CC(C)C)NC(=O)[C@](C)(Cc1ccccc1)NC(=O)[C@H](CO)NC(=O)[C@](C)(CO)NC(=O)[C@@H](NC(=O)[C@H](CC(=O)O)NC(=O)[C@H](CO)NC(=O)[C@@H](NC(=O)[C@](C)(Cc1ccccc1)NC(=O)[C@H](CO)NC(=O)CNC(=O)[C@H](CCC(=O)O)NC(=O)C(C)(C)NC(=O)[C@@H](N)Cc1c[nH]cn1)[C@@H](C)O)C(C)C)C(=O)N[C@@H](C)C(=O)N[C@@](C)(Cc1ccccc1)C(=O)N[C@H](C(=O)N[C@H](C(=O)N[C@@](C)(CCCCN)C(=O)NCC(=O)NCC(N)=O)C(C)C)C(C)C` [compound 145]: the EC50 in test [1] (setting [4]) was 27 pM; in test [1] (setting [5]), 15 pM; in test [1] (setting [6]), 21 pM; in test [2] (setting [7]), not below 25 nM; in test [2] (setting [8]) it was not below 25 nM; in test [3] (setting [9]), not below 25 nM. Also, the EC50 in test [3] (setting [10]) was not below 25 nM.

Turning to `CCCCCCCCCCCCCCCCCC(=O)N[C@@H](CCC(=O)NCCCC[C@H](NC(=O)[C@H](C)NC(=O)[C@H](C)NC(=O)[C@H](CCC(=O)O)NC(=O)CNC(=O)[C@H](CCC(=O)O)NC(=O)[C@H](CC(C)C)NC(=O)[C@](C)(Cc1ccccc1)NC(=O)[C@H](CO)NC(=O)[C@](C)(CO)NC(=O)[C@@H](NC(=O)[C@H](CC(=O)O)NC(=O)[C@H](CO)NC(=O)[C@@H](NC(=O)[C@](C)(Cc1ccccc1)NC(=O)[C@H](CO)NC(=O)CNC(=O)[C@H](CCC(=O)O)NC(=O)C(C)(C)NC(=O)[C@@H](N)Cc1c[nH]cn1)[C@@H](C)O)C(C)C)C(=O)N[C@@H](CCC(=O)O)C(=O)N[C@@](C)(Cc1ccccc1)C(=O)N[C@H](C(=O)N[C@@H](C)C(=O)N[C@@](C)(Cc1ccccc1)C(=O)N[C@H](C(=O)N[C@H](C(=O)N[C@@](C)(CCCCN)C(=O)NCC(=O)NCC(N)=O)C(C)C)C(C)C)[C@@H](C)CC)C(=O)O` [compound 146], the EC50 is 96 pM in test [1] (setting [4]); 42 pM in test [1] (setting [5]); 69 pM in test [1] (setting [6]); not below 28 nM in test [2] (setting [11]); not below 28 nM in test [2] (setting [12]); not below 28 nM in test [3] (setting [13]). In addition, in test [3] (setting [14]), the EC50 is not below 28 nM.

As for `CCCCCCCCCCCCCCCCCC(=O)N[C@@H](CCC(=O)N[C@@H](CCC(=O)NCCCC[C@H](NC(=O)[C@H](C)NC(=O)[C@H](C)NC(=O)[C@H](CCC(=O)O)NC(=O)CNC(=O)[C@H](CCC(=O)O)NC(=O)[C@H](CC(C)C)NC(=O)[C@](C)(Cc1ccccc1)NC(=O)[C@H](CO)NC(=O)[C@](C)(CO)NC(=O)[C@@H](NC(=O)[C@H](CC(=O)O)NC(=O)[C@H](CO)NC(=O)[C@@H](NC(=O)[C@](C)(Cc1ccccc1)NC(=O)[C@H](CO)NC(=O)CNC(=O)[C@H](CCC(=O)O)NC(=O)C(C)(C)NC(=O)[C@@H](N)Cc1c[nH]cn1)[C@@H](C)O)C(C)C)C(=O)N[C@@H](CCC(=O)O)C(=O)N[C@@](C)(Cc1ccccc1)C(=O)N[C@H](C(=O)N[C@@H](C)C(=O)N[C@@](C)(Cc1ccccc1)C(=O)N[C@H](C(=O)N[C@H](C(=O)N[C@@](C)(CCCCN)C(=O)NCC(=O)NCC(N)=O)C(C)C)C(C)C)[C@@H](C)CC)C(=O)O)C(=O)O` [compound 147], the EC50 in test [1] (setting [4]) is 32 pM; in test [1] (setting [5]), 14 pM; in test [1] (setting [6]), 23.2 pM; in test [2] (setting [11]), not below 27 nM; in test [2] (setting [12]), not below 27 nM; in test [3] (setting [13]), not below 27 nM. In addition, the EC50 in test [3] (setting [14]) was not below 27 nM.

In the case of `CCCCCCCCCCCCCCCCCC(=O)N[C@@H](CCC(=O)N[C@@H](CCC(=O)N[C@@H](CCC(=O)NCCCC[C@H](NC(=O)[C@H](C)NC(=O)[C@H](C)NC(=O)[C@H](CCC(=O)O)NC(=O)CNC(=O)[C@H](CCC(=O)O)NC(=O)[C@H](CC(C)C)NC(=O)[C@](C)(Cc1ccccc1)NC(=O)[C@H](CO)NC(=O)[C@](C)(CO)NC(=O)[C@@H](NC(=O)[C@H](CC(=O)O)NC(=O)[C@H](CO)NC(=O)[C@@H](NC(=O)[C@](C)(Cc1ccccc1)NC(=O)[C@H](CO)NC(=O)CNC(=O)[C@H](CCC(=O)O)NC(=O)C(C)(C)NC(=O)[C@@H](N)Cc1c[nH]cn1)[C@@H](C)O)C(C)C)C(=O)N[C@@H](CCC(=O)O)C(=O)N[C@@](C)(Cc1ccccc1)C(=O)N[C@H](C(=O)N[C@@H](C)C(=O)N[C@@](C)(Cc1ccccc1)C(=O)N[C@H](C(=O)N[C@H](C(=O)N[C@@](C)(CCCCN)C(=O)NCC(=O)NCC(N)=O)C(C)C)C(C)C)[C@@H](C)CC)C(=O)O)C(=O)O)C(=O)O` [compound 148], the EC50 in test [1] (setting [4]) was 16 pM; in test [1] (setting [5]), 8.7 pM; in test [1] (setting [6]), 12.1 pM; in test [2] (setting [11]) it was not below 26 nM; in test [2] (setting [12]), not below 26 nM; in test [3] (setting [13]) it was not below 26 nM. Besides, the EC50 in test [3] (setting [14]) is not below 26 nM.

The values are drawn from patent US10414811B2, “Protease-resistant lipidated GLP-1 analogs” (MEDIMMUNE LIMITED, priority 2015, dated 2019).
